Common to all, as to type: biochemical
One assay deals with Human recombinant HDAC4 (Homo sapiens (Human), UniProt P56524). Kind of assay: Test 2: HDAC4 assay (fluorogenic substrate, 5 μM acetyl-Gly-Ala-Lys(ε-trifluoroacetyl)-AMC). Conditions: Test 2 (values without asterisk). In a few lines:
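After the reaction, bovine trypsin (300 nM solution) was added for 15 min at RT to develop the signal; fluorescence read at 360/450 nm. No-enzyme background subtracted; IC50 from 4-parameter logistic fit of dose-response curves.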

The target of assay [1] is Human recombinant full length HDAC1 (Homo sapiens (Human), UniProt Q13547). Briefly: Test 3: HDAC1 assay. The following applies: substrate 5 μM acetyl-Gly-Ala-Lys(acetyl)-AMC. Summed up: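 Baculovirus-expressed full-length human HDAC1 with 5 μM acetyl-Gly-Ala-Lys(acetyl)-AMC substrate, developed with trypsin 15 min at room temperature.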
For assay [2], the target named is Human recombinant full length HDAC6 (Homo sapiens (Human), UniProt Q9UBN7). Kind of assay: Test 4: HDAC6 assay. Conditions: Test 4; substrate 5 μM acetyl-Gly-Ala-Lys(acetyl)-AMC. Summed up:
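Baculovirus-expressed full-length recombinant human HDAC6 with 5 μM acetyl-Gly-Ala-Lys(acetyl)-AMC substrate, developed with trypsin 15 min at room temperature.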

Where only a bound is given, the exact number is not on record here.

Chain of Human recombinant HDAC4 (P56524 2-1084): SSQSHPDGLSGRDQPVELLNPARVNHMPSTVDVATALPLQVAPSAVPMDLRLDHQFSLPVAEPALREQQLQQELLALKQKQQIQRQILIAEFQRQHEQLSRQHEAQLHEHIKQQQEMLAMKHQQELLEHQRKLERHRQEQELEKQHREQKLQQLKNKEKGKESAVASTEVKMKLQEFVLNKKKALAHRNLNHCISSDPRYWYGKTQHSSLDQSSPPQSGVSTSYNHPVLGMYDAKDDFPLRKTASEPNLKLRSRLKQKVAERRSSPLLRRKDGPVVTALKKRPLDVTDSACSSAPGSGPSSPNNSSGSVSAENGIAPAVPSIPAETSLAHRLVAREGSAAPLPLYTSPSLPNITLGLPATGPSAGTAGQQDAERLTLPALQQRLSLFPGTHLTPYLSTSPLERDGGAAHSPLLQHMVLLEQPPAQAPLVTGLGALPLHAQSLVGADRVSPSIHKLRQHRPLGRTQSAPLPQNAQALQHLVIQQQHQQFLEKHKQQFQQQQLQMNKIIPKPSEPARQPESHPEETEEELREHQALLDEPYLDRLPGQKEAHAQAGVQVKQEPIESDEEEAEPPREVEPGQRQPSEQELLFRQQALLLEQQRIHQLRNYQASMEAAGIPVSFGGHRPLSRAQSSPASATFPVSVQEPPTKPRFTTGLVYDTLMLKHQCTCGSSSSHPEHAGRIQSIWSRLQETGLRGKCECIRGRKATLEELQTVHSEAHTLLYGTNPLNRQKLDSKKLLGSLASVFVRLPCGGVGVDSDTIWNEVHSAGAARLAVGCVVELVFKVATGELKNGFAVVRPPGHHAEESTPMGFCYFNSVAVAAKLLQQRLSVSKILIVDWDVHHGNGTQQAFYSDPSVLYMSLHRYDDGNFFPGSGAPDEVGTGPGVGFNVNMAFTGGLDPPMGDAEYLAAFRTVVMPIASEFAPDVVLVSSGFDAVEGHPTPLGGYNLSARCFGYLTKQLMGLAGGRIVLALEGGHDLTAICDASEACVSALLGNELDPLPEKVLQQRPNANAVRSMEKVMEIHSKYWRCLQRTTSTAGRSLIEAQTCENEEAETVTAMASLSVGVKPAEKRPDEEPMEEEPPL
Chain of Human recombinant full length HDAC6 (Q9UBN7 whole entry): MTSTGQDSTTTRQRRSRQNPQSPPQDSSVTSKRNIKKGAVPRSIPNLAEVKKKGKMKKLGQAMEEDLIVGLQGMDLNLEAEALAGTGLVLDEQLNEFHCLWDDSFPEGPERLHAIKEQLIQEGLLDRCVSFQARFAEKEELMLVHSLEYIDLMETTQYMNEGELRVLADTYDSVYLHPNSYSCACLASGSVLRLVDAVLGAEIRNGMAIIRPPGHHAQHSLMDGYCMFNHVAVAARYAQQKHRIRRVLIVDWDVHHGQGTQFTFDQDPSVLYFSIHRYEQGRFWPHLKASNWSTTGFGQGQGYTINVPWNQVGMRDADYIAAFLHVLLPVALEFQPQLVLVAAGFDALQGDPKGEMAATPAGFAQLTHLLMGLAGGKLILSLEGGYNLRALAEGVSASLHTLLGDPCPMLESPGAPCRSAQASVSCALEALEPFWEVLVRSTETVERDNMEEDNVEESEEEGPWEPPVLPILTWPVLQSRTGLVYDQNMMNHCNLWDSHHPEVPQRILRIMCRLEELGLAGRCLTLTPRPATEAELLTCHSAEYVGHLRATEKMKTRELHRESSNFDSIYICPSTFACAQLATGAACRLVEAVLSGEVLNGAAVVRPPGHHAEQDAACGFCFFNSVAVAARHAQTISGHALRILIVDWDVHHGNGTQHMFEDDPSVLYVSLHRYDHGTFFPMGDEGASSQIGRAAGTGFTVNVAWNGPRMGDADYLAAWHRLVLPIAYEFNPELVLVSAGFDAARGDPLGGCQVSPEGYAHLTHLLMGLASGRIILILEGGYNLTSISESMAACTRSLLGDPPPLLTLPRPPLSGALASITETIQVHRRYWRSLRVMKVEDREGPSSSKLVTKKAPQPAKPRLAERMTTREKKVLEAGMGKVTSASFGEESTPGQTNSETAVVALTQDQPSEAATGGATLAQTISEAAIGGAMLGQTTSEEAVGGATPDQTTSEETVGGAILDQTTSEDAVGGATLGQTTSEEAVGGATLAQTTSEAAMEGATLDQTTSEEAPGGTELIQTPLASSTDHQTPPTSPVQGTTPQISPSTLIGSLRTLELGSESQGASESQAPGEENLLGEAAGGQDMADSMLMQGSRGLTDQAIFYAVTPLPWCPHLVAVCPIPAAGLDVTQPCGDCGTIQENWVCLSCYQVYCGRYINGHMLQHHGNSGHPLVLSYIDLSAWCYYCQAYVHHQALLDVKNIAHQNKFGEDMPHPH
Chain of Human recombinant full length HDAC1 (Q13547 whole entry): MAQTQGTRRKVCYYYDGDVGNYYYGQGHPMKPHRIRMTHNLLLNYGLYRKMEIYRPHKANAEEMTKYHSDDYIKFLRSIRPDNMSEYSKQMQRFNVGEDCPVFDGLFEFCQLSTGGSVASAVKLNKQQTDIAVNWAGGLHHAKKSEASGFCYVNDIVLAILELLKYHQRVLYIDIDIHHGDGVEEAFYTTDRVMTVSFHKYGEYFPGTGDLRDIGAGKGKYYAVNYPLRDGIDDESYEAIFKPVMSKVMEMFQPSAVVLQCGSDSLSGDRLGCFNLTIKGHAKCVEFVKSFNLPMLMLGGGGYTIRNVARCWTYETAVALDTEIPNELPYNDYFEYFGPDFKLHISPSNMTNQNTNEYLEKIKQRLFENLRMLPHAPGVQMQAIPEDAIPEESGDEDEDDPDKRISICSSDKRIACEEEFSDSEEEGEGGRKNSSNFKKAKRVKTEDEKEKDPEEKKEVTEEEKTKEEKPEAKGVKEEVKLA

On to `NC1CCCCC1NC(=O)c1ccc(-c2noc(C(F)(F)F)n2)cc1` (stereo not drawn) [Example 77, N-(2-aminocyclohexyl)-4-(5-(trifluoromethyl)-1,2,4-oxadiazol-3-yl)benzamide], for which the IC50 was 350 nM at Human recombinant HDAC4, > 10 µM in assay [1] and > 10 µM in assay [2].

For `O=C(NC1CCNCC1)c1ccc(-c2noc(C(F)(F)F)n2)cc1` [Example 76, N-(piperidin-4-yl)-4-(5-(trifluoromethyl)-1,2,4-oxadiazol-3-yl)benzamide], the IC50 on Human recombinant HDAC4 is 150 nM; in assay [1] it was > 10 µM; in assay [2] it was 3.9 µM.

For `CN(C)CCNS(=O)(=O)c1ccc(-c2noc(C(F)(F)F)n2)cc1` [Example 98, N-(2-(dimethylamino)ethyl)-4-(5-(trifluoromethyl)-1,2,4-oxadiazol-3-yl)benzenesulfonamide], the IC50 on Human recombinant HDAC4 is 360 nM; in assay [1], > 10 µM; in assay [2], 6.4 µM.

As for `O=C(N[C@@H]1CCNC1)c1ccc(-c2noc(C(F)(F)F)n2)cc1F` [Example 95, (R)-2-fluoro-N-(pyyrrolidin-3-yl)-4-(5-(trifluoromethyl)-1,2,4-oxadiazol-3-yl)benzamide], the IC50 at Human recombinant HDAC4 is 160 nM; in assay [1], > 10 µM; in assay [2] it was 6.9 µM.

For `COc1cc(NC(=O)c2ccc(-c3noc(C(F)(F)F)n3)cc2)ccn1` [Example 67, N-(2-methoxypyridin-4-yl)-4-(5-(trifluoromethyl)-1,2,4-oxadiazol-3-yl)benzamide], the results for the IC50 (at Human recombinant HDAC4; in assay [1]; in assay [2]) were 160 nM, > 10 µM and 8.3 µM, respectively.

Regarding `CC(CN(C)C)NC(=O)c1ccc(-c2noc(C(F)(F)F)n2)cc1` (stereo not drawn) [Example 53, N-(1-(dimethylamino)propan-2-yl)-4-(5-(trifluoromethyl)-1,2,4-oxadiazol-3-yl)benzamide], the IC50 is 26 nM at Human recombinant HDAC4, > 10 µM in assay [1] and > 10 µM in assay [2].

`C[C@@H](CO)NC(=O)c1ccc(-c2noc(C(F)(F)F)n2)cc1` [Example 50, (S)—N-(1-hydroxyypropan-2-yl)-4-(5-(trifluoromethyl)-1,2,4-oxadiazol-3-yl)benzamide]: the IC50 at Human recombinant HDAC4 is 620 nM; in assay [1] it was > 10 µM; in assay [2] it was 7.2 µM.

Consider `Cc1cccc(NS(=O)(=O)c2ccc(-c3noc(C(F)(F)F)n3)cc2)c1` [Example 105, N-m-tolyl-4-(5-(trifluoromethyl)-1,2,4-oxadiazol-3-yl)benzenesulfonamide], for which the IC50 amounted to 270 nM at Human recombinant HDAC4, 3.6 µM in assay [1] and 0.47 µM in assay [2].

Regarding `CCCCNC(=O)Cc1ccc(-c2noc(C(F)(F)F)n2)cc1` [Example 6, N-butyl-2-(4-(5-(trifluoromethyl)-1,2,4-oxadiazol-3-yl)phenyl)acetamide], the IC50 at Human recombinant HDAC4 is 630 nM; in assay [1], > 10 µM; in assay [2], 3.2 µM.

With `CC(C)[C@H](CN(C)C)NC(=O)c1ccc(-c2noc(C(F)(F)F)n2)cc1F` [Example 89, (R)—N-(1-(dimethylamino)-3-methylbutan-2-yl)-2-fluoro-4-(5-(trifluoromethyl)-1,2,4-oxadiazol-3-yl)benzamide], the IC50 is 45 nM at Human recombinant HDAC4, > 10 µM in assay [1] and > 10 µM in assay [2].

On to `CC(CNC(=O)c1ccc(-c2noc(C(F)(F)F)n2)cc1F)N(C)C` (stereo not drawn) [Example 122, N-(2-(dimethylamino)propyl)-2-fluoro-4-(5-(trifluoromethyl)-1,2,4-oxadiazol-3-yl)benzamide], for which the half-inhibitory concentration (IC50) was found to be 85 nM on Human recombinant HDAC4, 9 µM in assay [1] and 2.4 µM in assay [2].

On to `C[C@H](CN(C)Cc1ccccc1)NC(=O)c1ccc(-c2noc(C(F)(F)F)n2)cc1` [Example 156, (R)—N-(1-(benzyl(methyl)amino)propan-2-yl)-4-(5-(trifluoromethyl)-1,2,4-oxadiazol-3-yl)benzamide], for which the figures for the IC50 (at Human recombinant HDAC4; in assay [1]; in assay [2]) were 0.85 nM, 2.9 µM and 2.3 µM, respectively.

Turning to `CCN(CC)C[C@@H](C)NC(=O)c1ccc(-c2noc(C(F)(F)F)n2)cc1` [Example 132, (R)—N-(1-(diethylamino)propan-2-yl)-4-(5-(trifluoromethyl)-1,2,4-oxadiazol-3-yl)benzamide], the values for the IC50 (on Human recombinant HDAC4; in assay [1]; in assay [2]) were 5 nM, 9.2 µM and 8.3 µM, respectively.

Consider `CC(C)[C@H](CN(C)C)NC(=O)c1ccc(-c2noc(C(F)(F)F)n2)cc1` [Example 84, (R)—N-(1-(dimethylamino)-3-methylbutan-2-yl)-4-(5-(trifluoromethyl)-1,2,4-oxadiazol-3-yl)benzamide], for which the IC50 was 490 nM at Human recombinant HDAC4, > 10 µM in assay [1] and > 10 µM in assay [2].

For `COCCNC(=O)Cc1ccc(-c2noc(C(F)(F)F)n2)cc1` [Example 7, N-(2-methoxyethyl)-2-(4-(5-(trifluoromethyl)-1,2,4-oxadiazol-3-yl)phenyl)acetamide], the IC50 is 960 nM at Human recombinant HDAC4, > 10 µM in assay [1] and 6.9 µM in assay [2].

`CN1CCC[C@@H](NC(=O)c2ccc(-c3noc(C(F)(F)F)n3)cc2)C1` [Example 154, (R)—N-(1-methylpiperidin-3-yl)-4-(5-(trifluoromethyl)-1,2,4-oxadiazol-3-yl)benzamide]: the IC50 on Human recombinant HDAC4 is 110 nM; in assay [1] it was > 10 µM; in assay [2] it was 7.2 µM.

Turning to `CN(C)CC(C)(C)NC(=O)c1ccc(-c2noc(C(F)(F)F)n2)cc1` [Example 119, N-(1-(dimethylamino)-2-methylpropan-2-yl)-4-(5-(trifluoromethyl)-1,2,4-oxadiazol-3-yl)benzamide], the results for the IC50 (on Human recombinant HDAC4; in assay [1]; in assay [2]) were 36 nM, > 10 µM and > 10 µM, respectively.

With `CN(C)S(=O)(=O)c1ccc(-c2noc(C(F)(F)F)n2)cc1` [Example 114, N,N-dimethyl-4-(5-(trifluoromethyl)-1,2,4-oxadiazol-3-yl)benzenesulfonamide], the 50% inhibitory concentration (IC50) on Human recombinant HDAC4 was 630 nM; in assay [1], > 10 µM; in assay [2] it was 9.1 µM.

Consider `O=C(c1ccc(-c2noc(C(F)(F)F)n2)cc1)N1CCCC1` [Example 23, Pyrrolidin-1-yl(4-(5-(trifluoromethyl)-1,2,4-oxadiazol-3-yl)phenyl)methanone], for which the IC50 was 1500 nM on Human recombinant HDAC4, > 10 µM in assay [1] and 6 µM in assay [2].

Turning to `O=C(NCCNc1ccccc1)c1ccc(-c2noc(C(F)(F)F)n2)cc1` [Example 158, N-(2-(phenylamino)ethyl)-4-(5-(trifluoromethyl)-1,2,4-oxadiazol-3-yl)benzamide], the IC50 at Human recombinant HDAC4 came to 360 nM; in assay [1] it was 8.8 µM; in assay [2], 1.8 µM.

For `O=C(NC1CCNC1)c1ccc(-c2noc(C(F)(F)F)n2)cc1` (stereo not drawn) [Example 80, N-(pyrrolidin-3-yl)-4-(5-(trifluoromethyl)-1,2,4-oxadiazol-3-yl)benzamide], the values for the IC50 (at Human recombinant HDAC4; in assay [1]; in assay [2]) were 470 nM, > 10 µM and > 10 µM, respectively.

Turning to `O=S(=O)(Nc1ccc(F)cc1)c1ccc(-c2noc(C(F)(F)F)n2)cc1` [Example 109, N-(4-fluorophenyl)-4-(5-(trifluoromethyl)-1,2,4-oxadiazol-3-yl)benzenesulfonamide], the IC50 on Human recombinant HDAC4 was 97 nM; in assay [1] it was > 10 µM; in assay [2], 0.44 µM.

Take `CCN(C[C@@H](C)NC(=O)c1ccc(-c2noc(C(F)(F)F)n2)cc1F)C(C)C` [Example 152, (R)—N-(1-(ethyl(isopropyl)amino)propan-2-yl)-2-fluoro-4-(5-(trifluoromethyl)-1,2,4-oxadiazol-3-yl)benzamide]: the IC50 on Human recombinant HDAC4 is 8.4 nM; in assay [1], > 10 µM; in assay [2] it was 2.4 µM.

Turning to `O=C(NCCCn1ccnc1)c1ccc(-c2noc(C(F)(F)F)n2)cc1` [Example 40, N-(3-(1 H-imidazol-1-yl)propyl)-4-(5-(trifluoromethyl)-1,2,4-oxadiazol-3-yl)benzamide], the IC50 at Human recombinant HDAC4 was 460 nM; in assay [1] it was > 10 µM; in assay [2] it was 4.6 µM.

With `CC(CN(C)C)N(C)C(=O)c1ccc(-c2noc(C(F)(F)F)n2)cc1` (stereo not drawn) [Example 94, N-(1-(dimethylamino)propan-2-yl)-N-methyl-4-(5-(trifluoromethyl)-1,2,4-oxadiazol-3-yl)benzamide], the results for the IC50 (on Human recombinant HDAC4; in assay [1]; in assay [2]) were 520 nM, > 10 µM and > 10 µM, respectively.

As to `O=C(NC1CCOCC1)c1ccc(-c2noc(C(F)(F)F)n2)cc1` [Example 57, N-(tetrahydro-2H-pyran-4-yl)-4-(5-(trifluoromethyl)-1,2,4-oxadiazol-3-yl)benzamide], the values for the IC50 (at Human recombinant HDAC4; in assay [1]; in assay [2]) were 520 nM, > 10 µM and 6.5 µM, respectively.

`CCN(CC)CCNC(=O)c1ccc(-c2noc(C(F)(F)F)n2)cc1` [Example 155, N-(2-(diethylamino)ethyl)-4-(5-(trifluoromethyl)-1,2,4-oxadiazol-3-yl)benzamide]: the IC50 at Human recombinant HDAC4 came out at 12 nM; in assay [1] it was 2.9 µM; in assay [2] it was 2.6 µM.

Regarding `CCCN(CC)C[C@@H](C)NC(=O)c1ccc(-c2noc(C(F)(F)F)n2)cc1` [Example 145, (R)—N-(1-(ethyl(propyl)amino)propan-2-yl)-4-(5-(trifluoromethyl)-1,2,4-oxadiazol-3-yl)benzamide], the IC50 was 0.75 nM on Human recombinant HDAC4, 2.4 µM in assay [1] and 3.7 µM in assay [2].

Usually IC50 stands for the concentration at which inhibition is half-maximal.

These data come from patent publication US9056843B2, “Trifluoromethyl-oxadiazole derivatives and their use in the treatment of disease” (NOVARTIS AG, priority 2011, dated 2015).
